SMILES strings stand for the structures.

What all share (assay): Bliss excess, mean over the matrix (fraction); higher = more synergy
Experiment [1] relates to CL-11 (Colorectal Carcinoma). Summed up: (§1)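 After 24 hours at 37°C and 5% CO2 in 1536-well plates, cells in DMEM/F12 or RPMI plus 10% FBS received two-drug dose matrices for 72 hours. Viability came from CellTiter-Glo 2.0 luminescence and was scaled as inhibition, anchored at 0 by vehicle wells and at 1 by blank wells. Combination Emax is taken as the second-highest inhibition in the matrix, and Bliss excess as the observed combination effect less EA + EB − EA·EB, with EA and EB the single-agent effects.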

Experiment [2] has as its system CPC-N (Small Cell Lung Carcinoma). Summed up: as §1
In another experiment the test system is ES6 (Ewing's Sarcoma). Summed up: as §1
For experiment [3], the system named is LS-1034 (Colorectal Carcinoma). An outline of the steps: as §1
The subject of experiment [4] is MOLP-8 (Plasma Cell Myeloma). An outline of the steps:
as §1

Experiment [5] relates to NCI-H3118 (Head and Neck Carcinoma). Summed up:
as §1

Experiment [6] has as its system NCI-H596 (Other Solid Carcinomas). Summed up:
as §1

Experiment [7] deals with OAW-28 (Ovarian Carcinoma). An outline of the steps: as §1
Experiment [8] concerns OVCAR-3 (Ovarian Carcinoma). Summed up: as §1
The subject of experiment [9] is P32-ISH (Burkitt's Lymphoma). An outline of the steps: as §1
Experiment [10] relates to PA-TU-8988T (Pancreatic Carcinoma). Summed up:
as §1

Experiment [11] relates to PL4 (Pancreatic Carcinoma). An outline of the steps: as §1
Experiment [12] relates to RCC-JW (Kidney Carcinoma). An outline of the steps: as §1
For experiment [13], the system named is SK-CO-1 (Colorectal Carcinoma). An outline of the steps: as §1
In experiment [14] the test system is SKG-IIIa (Cervical Carcinoma). An outline of the steps:
as §1

For experiment [15], the system named is SNU-407 (Colorectal Carcinoma). Summed up:
as §1

For experiment [16], the system named is SUP-M2 (T-Cell Non-Hodgkin's Lymphoma). An outline of the steps: as §1
The next experiment deals with T47D (Breast Carcinoma). Summed up: as §1
The next experiment deals with UACC-257 (Melanoma). An outline of the steps:
as §1

For a further experiment, the system named is WM35 (Melanoma). An outline of the steps:
as §1

For `CN(CCO)CC[C@H](CSc1ccccc1)Nc1ccc(S(=O)(=O)NC(=O)c2ccc(N3CCC([C@@H](O)c4ccccc4-c4ccc(Cl)cc4)CC3)cc2)cc1S(=O)(=O)C(F)(F)F` [AZD4320] + CN(C)CCCOc1ccc(-c2ccc3ncc4c(c3c2)n(C2CCOCC2)c(=O)n4C)cn1 [AZD0156] (first compound max 1 µM, 7x7, partner max 1 µM), the Bliss excess in experiment [1] is -0.0441; in [2] it was -0.0391; in the experiment with ES6 (Ewing's Sarcoma), -0.0314; in [3], -0.0386; in experiment [4], 0.0233; in experiment [5], -0.044. The Bliss excess in experiment [6] is -0.0184; in experiment [7], -0.0218; in [8] it was -0.0407; in [9] it was 0.0018; in experiment [10], -0.005; in experiment [11] it was 0.0463. For the same compound, the Bliss excess in [12] was -0.0301; in experiment [13], -0.0758; in experiment [14] it was -0.0392; in [15], -0.0555; in [16], 0.0491; with T47D (Breast Carcinoma), -0.0056. The Bliss excess is -0.0323 in the experiment on UACC-257 (Melanoma) and -0.0141 with WM35 (Melanoma).
For `CN(CCO)CC[C@H](CSc1ccccc1)Nc1ccc(S(=O)(=O)NC(=O)c2ccc(N3CCC([C@@H](O)c4ccccc4-c4ccc(Cl)cc4)CC3)cc2)cc1S(=O)(=O)C(F)(F)F` [AZD4320] + C[C@@H]1COCCN1C2=NC(=NC(=C2)C3(CC3)[S@](=N)(=O)C)C4=C5C=CNC5=NC=C4 [AZD6738] (first compound max 1 µM, 7x7, partner max 10 µM), the Bliss excess in experiment [1] is 0.0073; in experiment [2], 0.0146; in the experiment with ES6 (Ewing's Sarcoma), 0.015; in experiment [3] it was -0.037; in [4], 0.0086; in [5], 0.0076. In addition, the Bliss excess is -0.047 in [6]; 0.0382 in experiment [7]; -0.0231 in experiment [8]; -0.0092 in [9]; -0.0006 in [10]; -0.066 in experiment [11]. The Bliss excess in [12] was -0.0862; in [13], -0.0858; in [14] it was -0.0302; in [15] it was -0.0568; in experiment [16], -0.0128; in the experiment with T47D (Breast Carcinoma), -0.0566. The figures for the Bliss excess with UACC-257 (Melanoma) and with WM35 (Melanoma) were -0.0663 and -0.0182, respectively.
For `CN(CCO)CC[C@H](CSc1ccccc1)Nc1ccc(S(=O)(=O)NC(=O)c2ccc(N3CCC([C@@H](O)c4ccccc4-c4ccc(Cl)cc4)CC3)cc2)cc1S(=O)(=O)C(F)(F)F` [AZD4320] + C[C@@H](Nc1cc(F)cc(F)c1)c1cc(C(=O)N(C)C)cc2c(=O)cc(N3CCOCC3)oc12 [AZD8186] (first compound max 1 µM, 7x7, partner max 3 µM), the Bliss excess in experiment [1] was -0.0011; in experiment [2] it was 0.0273; with ES6 (Ewing's Sarcoma) it was 0.0029; in experiment [3], -0.0026; in [4], 0.0576; in experiment [5] it was 0.0019. Moreover, the Bliss excess was -0.0892 in experiment [6]; 0.0055 in [7]; -0.0135 in experiment [8]; 0.0526 in [9]; -0.005 in experiment [10]; -0.0411 in [11]. In addition, the Bliss excess was 0.0478 in experiment [12]; -0.051 in experiment [13]; -0.0066 in experiment [14]; -0.0167 in experiment [15]; 0.0539 in [16]; -0.0242 in the experiment on T47D (Breast Carcinoma). Besides, the values for the Bliss excess with UACC-257 (Melanoma) and in the experiment with WM35 (Melanoma) were 0.0488 and 0.047, respectively.
Turning to `CN(CCO)CC[C@H](CSc1ccccc1)Nc1ccc(S(=O)(=O)NC(=O)c2ccc(N3CCC([C@@H](O)c4ccccc4-c4ccc(Cl)cc4)CC3)cc2)cc1S(=O)(=O)C(F)(F)F` [AZD4320] + Cc1cc2ncnn2cc1Nc1ncc2c(n1)n(C1CCOCC1)c(=O)n2C [AZD7648] (first compound max 1 µM, 7x7, partner max 10 µM), the Bliss excess is -0.033 in [1]; 0.0364 in experiment [2]; -0.0494 with ES6 (Ewing's Sarcoma); -0.0403 in experiment [3]; -0.0125 in experiment [4]; -0.0392 in [5]. In addition, the Bliss excess in experiment [6] is -0.0422; in experiment [7], -0.0348; in experiment [8] it was -0.0521; in [9], 0.0076; in experiment [10], -0.043; in experiment [11], -0.0631. Further, the Bliss excess in experiment [12] is -0.0476; in [13] it was -0.0224; in experiment [14], -0.0614; in experiment [15] it was 0.0313; in [16], 0.036; in the experiment with T47D (Breast Carcinoma), -0.0255. Further, the Bliss excess in the experiment with UACC-257 (Melanoma) was -0.0351; in the experiment on WM35 (Melanoma), -0.0122.
Turning to `CN(CCO)CC[C@H](CSc1ccccc1)Nc1ccc(S(=O)(=O)NC(=O)c2ccc(N3CCC([C@@H](O)c4ccccc4-c4ccc(Cl)cc4)CC3)cc2)cc1S(=O)(=O)C(F)(F)F` [AZD4320] + Cn1cnc2c(F)c(Nc3ccc(Br)cc3Cl)c(C(=O)NOCCO)cc21 [Selumetinib] (first compound max 1 µM, 7x7, partner max 3 µM), the Bliss excess is 0.0489 in experiment [1]; -0.0185 in experiment [2]; -0.0326 in the experiment with ES6 (Ewing's Sarcoma); -0.0454 in experiment [3]; 0.0614 in experiment [4]; 0.0807 in [5]. Further, the Bliss excess in [6] was -0.0441; in experiment [7], 0.0927; in experiment [8], 0.0276; in experiment [9] it was 0.044; in experiment [10], 0.0561; in experiment [11], 0.0473. The Bliss excess in [12] is -0.0079; in experiment [13], 0.0154; in experiment [14], 0.0044; in experiment [15] it was -0.0231; in [16], 0.0058; with T47D (Breast Carcinoma) it was 0.0231. Also, the Bliss excess came out at 0.0815 in the experiment on UACC-257 (Melanoma) and 0.154 in the experiment on WM35 (Melanoma).
For the compound `COc1nnc2ccc(N3CCC(c4ccc(OCCN5CCN(C)C(=O)[C@H]5C)cc4)CC3)nn12` [AZD5153] + C=CCn1c(=O)c2cnc(Nc3ccc(N4CCN(C)CC4)cc3)nc2n1-c1cccc(C(C)(C)O)n1 [AZD1775] (first compound max 1 µM, partner max 1 µM), the Bliss excess in experiment [1] was -0.0376; in [2], -0.0862; in the experiment with ES6 (Ewing's Sarcoma), -0.0553; in experiment [3] it was -0.0549; in experiment [4] it was -0.0204; in experiment [5], -0.0981. The Bliss excess in experiment [6] is -0.131; in experiment [7], -0.0382; in [8] it was 0.0107; in experiment [9], -0.0649; in experiment [10], -0.0738; in experiment [11] it was 0.0251. Moreover, the Bliss excess in experiment [12] was -0.022; in [13] it was -0.0741; in experiment [14], -0.0221; in [15], -0.0278; in experiment [16], -0.0123; with T47D (Breast Carcinoma), -0.0262. The Bliss excess in the experiment with UACC-257 (Melanoma) was 0.0034; in the experiment with WM35 (Melanoma) it was -0.0242.
As for `COc1nnc2ccc(N3CCC(c4ccc(OCCN5CCN(C)C(=O)[C@H]5C)cc4)CC3)nn12` [AZD5153] + CC1(C)CCC(CN2CCN(c3ccc(C(=O)NS(=O)(=O)c4ccc(NCC5CCOCC5)c([N+](=O)[O-])c4)c(Oc4cnc5[nH]ccc5c4)c3)CC2)=C(c2ccc(Cl)cc2)C1 [Venetoclax] (first compound max 1 µM, 7x7, partner max 1 µM), the Bliss excess in [1] is -0.0302; in experiment [2], 0.0046; with ES6 (Ewing's Sarcoma), -0.0327; in [3], -0.011; in [4], 0.0065; in experiment [5], -0.0517. For the same compound, the Bliss excess is -0.0701 in experiment [6]; -0.0949 in [7]; -0.0157 in experiment [8]; -0.0067 in [9]; -0.0254 in experiment [10]; 0.0064 in experiment [11]. Moreover, the Bliss excess in [12] was -0.0551; in experiment [13] it was -0.0312; in experiment [14], -0.068; in experiment [15], -0.0217; in experiment [16] it was -0.0172; in the experiment with T47D (Breast Carcinoma), -0.0713. Further, the values for the Bliss excess in the experiment on UACC-257 (Melanoma) and in the experiment with WM35 (Melanoma) were -0.0555 and -0.0097, respectively.

(Values after the supplement of paper PMC11061612.)
